Test results: patent US8846739B2, “TGR5 agonists” (Exelixis Patent Company LLC, priority 2009, dated 2014)

Legend:
h-TGR5 = molecular target: T1, h-TGR5 (Homo sapiens, UniProt Q8TDU6); test: TGR5 cAMP Assay using Cisbio cAMP Dynamic 2 htrf assay kit; type: cell-based; details: hTGR5CRE-luc HEK 293 cells
T1 sequence (Q8TDU6 1-330): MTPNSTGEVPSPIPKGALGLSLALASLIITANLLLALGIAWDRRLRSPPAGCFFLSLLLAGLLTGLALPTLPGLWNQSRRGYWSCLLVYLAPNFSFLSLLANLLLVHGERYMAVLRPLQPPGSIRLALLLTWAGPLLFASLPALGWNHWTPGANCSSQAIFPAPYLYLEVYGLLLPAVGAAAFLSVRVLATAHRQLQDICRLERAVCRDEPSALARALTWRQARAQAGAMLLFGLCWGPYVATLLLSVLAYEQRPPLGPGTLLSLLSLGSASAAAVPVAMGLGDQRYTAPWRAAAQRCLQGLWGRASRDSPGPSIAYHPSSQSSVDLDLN

human TGR5 (h-TGR5) = molecular target: T2, human TGR5 (h-TGR5) (Homo sapiens, UniProt Q8TDU6); test: TGR5/CRE-Luciferase Assay; type: cell-based; details: HEK 293 hTGR5/CRE-Luc cells, 6 hours incubation, read-out: CRE-Luc Agonist (EC50)
T2 sequence (Q8TDU6 1-330): T1 sequence (Q8TDU6 1-330)
Outline: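 HEK 293 CRE-Luciferase cells stably expressing the receptor, plated in DMEM 18-20 h before assay, then exposed to serially diluted compounds (DMEM with 5% DMSO) for 6 h. Luciferase read-out after lysis; EC50 from dose-response.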

SMILES: COc1cc(C(C)(C)c2cnc(SCc3cc(S(=O)(=O)N(CCC[N+](C)(C)C)CCC[N+](C)(C)C)c(F)cc3Cl)n2-c2ccc(F)cc2)ccc1Cl [Example 6p, 3,3′-({[4-chloro-5-({[5-{1-[4-chloro-3-(methyloxy)phenyl]-1-methylethyl}-1-(4-fluorophenyl)-1H-imidazol-2-yl]thio}methyl)-2-fluorophenyl]sulfonyl}imino)bis(N,N,N-trimethylpropan-1-aminium)]
- EC50 (h-TGR5): 100 to 1000 nM
- EC50 (human TGR5 (h-TGR5)): 100 to 1000 nM

SMILES: COc1cc(C(C)(C)c2cnc(SCc3cc(S(=O)(=O)NCCC[N+](C)(C)C)c(Cl)cc3F)n2-c2ccc(F)cc2)ccc1Cl [Example 6q, 3-({[2-chloro-5-({[5-{1-[4-chloro-3-(methyloxy)phenyl]-1-methylethyl}-1-(4-fluorophenyl)-1H-imidazol-2-yl]thio}methyl)-4-fluorophenyl]sulfonyl}amino)-N,N,N-trimethylpropan-1-aminium]
- EC50 (h-TGR5): < 100 nM
- EC50 (human TGR5 (h-TGR5)): < 100 nM

SMILES: COc1cc(C(C)(C)c2cnc(SCc3c(F)cc(S(=O)(=O)NCCCC[N+](C)(C)C)cc3F)n2-c2ccc(F)cc2)ccc1Cl [Example 6r, 4-({[4-({[5-{1-[4-chloro-3-(methyloxy)phenyl]-1-methylethyl}-1-(4-fluorophenyl)-1H-imidazol-2-yl]thio}methyl)-3,5-difluorophenyl]sulfonyl}amino)-N,N,N-trimethylbutan-1-aminium]
- EC50 (h-TGR5): < 100 nM
- EC50 (human TGR5 (h-TGR5)): < 100 nM

SMILES: COc1cc(C(C)(C)c2cnc(SCc3cc(S(=O)(=O)NCCC[N+](C)(C)C)c(F)cc3Cl)n2-c2ccc(F)cc2)ccc1Cl [Example 7, 3-(4-Chloro-5-((5-(2-(4-chloro-3-methoxyphenyl)propan-2-yl)-1-(4-fluorophenyl)-1H-imidazol-2-ylthio)methyl)-2-fluorophenylsulfonamido)-N,N,N-trimethylpropan-1-aminium 2,2,2-trifluoroacetate]
- EC50 (h-TGR5): < 100 nM
- EC50 (human TGR5 (h-TGR5)): < 100 nM

SMILES: COc1cc(C(C)(C)c2cnc(SCc3c(F)ccc(S(=O)(=O)NCCC[N+](C)(C)C)c3F)n2-c2ccc(F)cc2)ccc1Cl [Example 7a, 3-({[3-({[5-{1-[4-chloro-3-(methyloxy)phenyl]-1-methylethyl}-1-(4-fluorophenyl)-1H-imidazol-2-yl]thio}methyl)-2,4-difluorophenyl]sulfonyl}amino)-N,N,N-trimethylpropan-1-aminium]
- EC50 (h-TGR5): < 100 nM
- EC50 (human TGR5 (h-TGR5)): < 100 nM

SMILES: CC[N+](CC)(CC)CCCNC(=O)NS(=O)(=O)c1cc(F)c(CSc2ncc(C(C)(C)c3ccc(Cl)c(OC)c3)n2-c2ccc(F)cc2)c(F)c1 [Example 8, 3-(3-(4-((5-(2-(4-Chloro-3-methoxyphenyl)propan-2-yl)-1-(4-fluorophenyl)-1H-imidazol-2-ylthio)methyl)-3,5-difluorophenylsulfonyl)ureido)-N,N,N-triethylpropan-1-aminium 2,2,2-trifluoroacetate]
- EC50 (h-TGR5): < 100 nM
- EC50 (human TGR5 (h-TGR5)): < 100 nM

SMILES: COc1cc(C(C)(C)c2cnc(SCc3c(F)cc(S(=O)(=O)NCCC[n+]4ccccc4)cc3Cl)n2-c2ccc(F)cc2)ccc1F [Example 9, 1-(3-(3-chloro-5-fluoro-4-((5-(2-(4-fluoro-3-methoxyphenyl)propan-2-yl)-1-(4-fluorophenyl)-1H-imidazol-2-ylthio)methyl)phenylsulfonamido)propyl)pyridinium methanesulfonate]
- EC50 (h-TGR5): < 100 nM
- EC50 (human TGR5 (h-TGR5)): < 100 nM

SMILES: COc1cc(C(C)(C)c2cnc(SCc3c(F)cc(S(=O)(=O)N(CCC[N+](C)(C)C)CC(=O)O)cc3F)n2-c2ccc(F)cc2)ccc1Cl [Example 12]
- EC50 (h-TGR5): < 100 nM
- EC50 (human TGR5 (h-TGR5)): < 100 nM
